Reference: BindingDB's records for doi:10.1016/s0960-894x(99)00042-6 (1999)

Experiment: Inhibitory activity against beta-glucosidase of sweet almond

Ki: 2.1 µM
SMILES: C[C@@H]1NC[C@@H](CO)[C@@H](O)[C@@H]1O [5-Hydroxymethyl-2-methyl-piperidine-3,4-diol]
